The values that follow come from patent US8198352B2, “High purity monoalkyltin compounds and uses thereof” (Arkema France, priority 2008, dated 2012).

Structures are written as SMILES.

The conditions of data set [1]: dihydropyridine-based compound alone, well known; cited from earlier work.
The subject of data set [2] is wistar rats. As to the kind of experiment: Example AB: reproduction/developmental toxicity screening test (OECD 421). Format: in vivo, rat. From the text: The objective of this study is to assess whether octyltin tris (2-ethylexylmercaptoacetate) causes adverse effects on reproduction and/or development of wistar rats. This study was preceded by a dose-range finding study (see Example AA).
Materials and Methods: • Groups: one control group and three test groups (12 males and 12 female per group) administered with different dose levels of the test substance; • Housing: Pre-mating (PM): 4 rats/sex/cage, macrolon cages; • Mating (M): 1 male and 1 female per cage; • Gestation (G) and lactation: 1 rat/sex/cage, macrolon cages; • Species: rat, Wistar outbred, Charles River Wiga GmbH, 9-10 weeks of age at start; • Carrier: Commercial rodent diet (Rat & Mouse No. 3 Breeding diet, RM3), ad libitum; • Treatment: Administration via the diet during 14 consecutive days premating; during 14 consecutive days mating, gestation and lactation up to 4 days (males are given the test substance in the diet until sacrifice at the end of the mating period); • one or two batches of test diets are prepared shortly before initiation of treatment and stored in a freezer/refrigerator; the feed in the animal feeders is refreshed once per week; • Clinical observations: general clinical observations (all rats): daily; morbidity is checked again in the afternoon; • Body weight: at least once pretest, males and females, premating and mating weekly; • Food consumption: males and females, premating and mating weekly; for female during gestation: GD 0, 7, 14 and 21 during lactation; PN 1 and 4; • Pups: sex, body, weight, number of live and dead pups, clinical signs PN 1 and 4; • Water consumption: visual inspection of the drinking bottles; • Pathology: • macroscopic examination (all rats); • count: number of implantations (uterus) and corpora lutea (ovaria); • weighing the following organs of all the surviving rats: testes (males), epididymes […], thymus; • preservation all animals): testes, epididymes, seminal vesicles, prostate, ovaries, uterus, thymus and organs and tissues showing macroscopic abnormalities; the organs are preserved in formalin and discarded when the results of the OECD 421 study indicate non need for microscopy; • Histopathology: preserved tissues for control and high level only […].
(§1) On each day of analysis, calibration solutions are prepared by spiking rodent diet with a stock solution of the organotin compound followed by derivatisation with sodium tetraethyl borate, in order to derivatise the octyltin compounds to the corresponding octyltin-ethyl compounds, with simultaneous extraction of the derivatised compounds into hexane.
(§2) The concentration of the test substance in diet is then determined by GC-MS of the hexane extracts.

The subject of data set [3] is rat, Wistar outbred. As to the kind of experiment: Example AA: 14-day oral (diet) dose-range toxicity study. Format: in vivo. The conditions noted are these: via the diet, 14 consecutive days.
Source text: The aim of this study is to select appropriate dose-levels for the main study.
Materials and Methods: • Groups: one control group and four test groups (4 males and 4 female per group) administered with different dose levels of the test substance; • Housing: 2 rats/sex/cage, macrolon cages; • Species: rat, Wistar outbred, Charles River Wiga GmbH, 9-10 weeks of age at start; • Carrier: Commercial rodent diet (Rat & Mouse No. 3 Breeding diet, RM3), ad libitum; • Treatment: Administration via the diet during 14 consecutive days; one batch of test diets is prepared shortly before initiation of treatment and stored in a freezer/refrigerator; the feed in the animal feeders is refreshed twice per week; • Clinical observations: general observations (all rats): daily; morbidity is checked again in the afternoon; • Body weight: at least once pretest, twice per week from the start of treatment (for the last time, on the day of scheduled necropsy); • Food consumption: twice weekly per cage (2 rats/cage) from the start of treatment; • Water consumption: visual inspection of the drinking bottles; • Pathology: • macroscopic examination (all rats); • weighing the following organs of all the surviving rats: kidneys, liver, spleen, testes, thymus; • preservation: the weighed organs are preserved in formalin and discarded when the results of the subsequent 90-day study indicate non need for microscopy on tissues from the 14-day study;
as §1, §2

Setting [4] is: rat, 200, 500 and 1250 mg/kg diet.

As for `CCCCCCCCCCCCOC(=O)C1=C(C)NC(C)=C(C(=O)OCCCCCCCCCCCC)C1` [DHP, dihydro-1,4-dimethyl-2,6-dicarbododecyloxy-3,5-pyridine], the “result in dynamic thermal stability (colour) test” value in data set [1] is “poor results”.

Regarding `CCCCCCC[CH2][Sn]([S]CC(=O)OCC(CC)CCCC)([S]CC(=O)OCC(CC)CCCC)[S]CC(=O)OCC(CC)CCCC` (centres unmarked) [octyltin tris (2-ethylexylmercaptoacetate)], the “NOAEL expressed per body weight” value in data set [2] (female animals) is reported as approximately 96 mg/kg body weight/day. Further, the “NOAEL expressed per body weight” value in data set [2] (male animals) was “approximately 72 mg/kg body weight/day”. Besides, in data set [2] (setting [4]), the “effects on pre- and post-natal development” value is reported as “No effects were observed”; the “effects on reproduction organs” value was “No effects were observed”; the “tolerability of oral administration” value is given as “well tolerated at all dose-levels”. For the same compound, in data set [2] (rat, oral via the diet), the “no averse effect level (NOAEL) for parental toxicity, fertility and development” value was found to be 1250 mg/kg diet. For the same compound, in data set [3], the abnormalities at necropsy result is reported as “no abnormalities were observed at necropsy”; the “change in body weight and food consumption” value is “no change in body weight and food consumption”; the clinical abnormalities entry is “no clinical abnormalities were observed”; the “effects on organ weights” value was “no effects were observed on organ weights”.
